Data from US9260382B2, “Methods of reducing virulence in bacteria” (priority 2010, dated 2016).
Several values for one entry are separate records, joined by “and”; a condition that tells them apart may be missing. Identical values can stand only once.

How the values were obtained:
hrpS promoter = assay: GFP reporter plasmid phrpS, flow cytometry of hrpS promoter activity; type: cell-based, Dickeya dadantii 3937; conditions: for GFP Mean Fluorescence Intensity, hrpS promoter: MM + 0.1 mM compound; for mean fluorescence intensity of GFP, hrpS promoter: 3937 (phrpS), MM + 100 μM
Summary of the method: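 Wild-type Ech3937 and mutant strains carrying the phrpS GFP reporter were grown overnight in LB at 28 °C, then transferred to appropriate media with compounds. Cells were washed and resuspended in PBS to ca 10^6 CFU/ml for flow cytometry, three replicates per treatment.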

[1] = system: Dickeya dadantii 3937 (Ech3937); assay: Bacterial growth in MM supplemented with compound; type: cell-based; conditions: compound added into the MM
Excerpt: (§1) Phenolic compounds constitute an important class of organic substances produced by plants. The phenolic compound SA is a signaling molecule that plays a role in host defenses. OCA and TCA are the biosynthetic precursors of SA and are also reported to induce the expression of defense-related genes in plants. OCA, TCA, and SA were examined to elucidate their effects on the expression of T3SS genes. The expression of the T3SS gene hrpN was examined in MM and MM supplemented with OCA, TCA, and SA, at concentrations of 0.05, 0.1, and 0.2 mM, respectively. FIGS. 2A and 2B show the promoter activities of hrpN in Dickeya dadantii 3937 (Ech3937) grown in MM and MM supplemented with 0.05, 0.1, and 0.2 mM OCA, TCA, and SA at 12 h (FIG. 2A) and 24 h (FIG. 2B) post-inoculation. GFP intensity was determined on gated populations of bacterial cells by flow cytometry and analyzed with the Cell Quest software (BD Biosciences, San Jose, Calif.). The growth of Ech3937 in MM supplemented with different concentrations of OCA, TCA and SA was recorded. Compared with MM alone, the average GFP fluorescence intensity of bacterial cells of Ech3937 (phrpN) was increased approximately 4-fold when 0.05 mM of OCA and TCA were added to the medium (FIGS. 2A, 2B).
The expression of the T3SS gene hrpA was further examined in MM and MM supplemented with PCA at concentrations of 0.001, 0.005, 0.01, 0.05 and 0.1 mM respectively. FIGS. 16A and 16B show the promoter activities of hrpA in Dickeya dadantii 3937 (Ech3937) grown in minimum medium (MM) and MM supplemented with different amount of p-coumaric acid (PCA) at 12 h (FIG. 16A) and 24 h (FIG. 16B) post-inoculation. GFP intensity was determined on gated populations of bacterial cells by flow cytometry and analyzed with the Cell Quest software (BD Biosciences, San Jose, Calif.). The growth of Ech3937 in MM supplemented with different concentrations of PCA was recorded. Compared with MM alone, the average GFP fluorescence intensity of bacterial cells of Ech3937 (phrpA) was reduced more than 4-fold when 0.05 and 0.1 mM of PCA were added to the medium (FIGS. 16A, 16B).

[2] = system: pPROBE-AT vector without promoter insert; assay: pPROBE-AT vector control, flow cytometry; type: cell-based, Dickeya dadantii 3937; conditions: for GFP Mean Fluorescence Intensity, vector control: Ech3937 (pPROBE-AT), MM + 0.1 mM compound; for mean fluorescence intensity of GFP, vector control: 3937 (pPROBE-AT), MM + 100 μM
Method: (§2) FACS analysis of promoter activity of dspE, hrpA, hrpL, hrpN, and hrpS was carried out as described (Peng et al., 2006). Briefly, the wild-type Ech3937 and the mutant strains carrying the promoter reporter plasmid were grown on LB broth at 28° C. overnight and transferred to appropriate media. For FACS analysis, samples were collected by centrifugation, washed with 1× phosphate buffer saline (PBS) at 13,000 rpm for 1 min, and re-suspended in 1×PBS to ca 10^6 CFU/ml prior to being run in a FACS Calibur flow cytometer (BD Biosciences, CA). Three replicates were performed for each treatment.

hrpN promoter (T3SS) = assay: GFP reporter plasmid phrpN, flow cytometry of hrpN promoter activity; type: cell-based, Dickeya dadantii 3937; conditions: for hrpN expression in Ech3937 and hrpX, hrpY, hrpS mutants, in words: 0.1 mM, 12 h (FIG. 5); for GFP Mean Fluorescence Intensity, hrpN promoter: MM + 0.1 mM compound; for mean fluorescence intensity of GFP, hrpN promoter: 3937 (phrpN), MM + 100 μM
Method: as §2, §1

rsmB RNA = assay: qRT-PCR relative mRNA level of rsmB; type: cell-based, Dickeya dadantii 3937; conditions: for rsmB mRNA relative expression ratio (MM alone normalized to 1): Ech3937 in MM supplemented with compound
Method: Bacterial strains were grown in MM. Total RNA from the bacterial cells was isolated by using the TRI reagent method (Sigma, Mo.) and treated with Turbo DNA-free DNase kits (Ambion, Tex.) as described (Peng et al., 2006). An iScript cDNA Synthesis Kit (Bio-Rad, CA) was used to synthesize cDNA from 0.5 μg of treated total RNA. The Real Master Mix (Eppendorf, Westbury, N.Y.) was used for qRT-PCR reaction to quantify the cDNA level of target genes in different samples. The rplU was used as the endogenous control for data analysis. qRT-PCR data were analyzed using Relative Expression Software Tool as described (Pfaffl, M. W., Horgan, G. W., and Dempfle, L. (2002) Relative expression software tool (REST) for group-wise comparison and statistical analysis of relative expression results in real-time PCR. Nucleic Acids Res 30:e36.).

hrpL promoter = assay: GFP reporter plasmid phrpL, flow cytometry of hrpL promoter activity; type: cell-based, Dickeya dadantii 3937; conditions: for GFP Mean Fluorescence Intensity, hrpL promoter: MM + 0.1 mM compound; for mean fluorescence intensity of GFP, hrpL promoter: 3937 (phrpL), MM + 100 μM
Method: as §2

hrpA promoter (T3SS) = assay: hrpA promoter-probe phrpA in Erwinia amylovora 273, flow cytometry; type: cell-based; conditions: Ea273 (phrpA), HIM + 100 μM compound
Summary of the method: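 Erwinia amylovora 273 carrying an hrpA promoter–GFP fusion (pPROBE-NT) was grown in hrp-inducing medium with 100 μM compound or DMSO. Promoter activity read as GFP intensity by flow cytometry at 6 h and 9 h.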

[3] = hrpL mutant WPP96 (phrpS), 12 h
[4] = hrpL mutant WPP96 (phrpN), 12 h

Compound: O=C(O)/C=C/c1ccccc1 [Compound 001, trans-cinnamic acid]
- GFP Mean Fluorescence Intensity, hrpS promoter (hrpS promoter; Ech3937 (phrpS), 12 h): 54 ± 2
- GFP Mean Fluorescence Intensity, hrpS promoter (hrpS promoter; [3]): 360 ± 16
- effect on bacterial growth of Ech3937 in MM, in words [1]: No reduction of bacterial growth
- GFP Mean Fluorescence Intensity, vector control ([2]; 12 h): 1.9 ± 0
- increase of average GFP fluorescence intensity of Ech3937 (phrpN) compared with MM alone (hrpN promoter (T3SS); 0.05 mM compound, 12 h and 24 h (FIGS. 2A, 2B)): approximately 4 fold
- hrpN expression in Ech3937 and hrpX, hrpY, hrpS mutants, in words (hrpN promoter (T3SS)): induced the expression of hrpN in Ech3937, but not in hrpX, hrpY, and hrpS mutants
- GFP Mean Fluorescence Intensity, hrpN promoter (hrpN promoter (T3SS); Ech3937 (phrpN), 12 h): 103 ± 1
- GFP Intensity of Ech3937 (phrpN) (hrpN promoter (T3SS); MM + 0.2 μM compound, 12 h): 65.1 ± 6.8
- GFP Intensity of Ech3937 (phrpN) (hrpN promoter (T3SS); MM + 0.2 μM compound, 24 h): 163 ± 25
- GFP Intensity of Ech3937 (phrpN) (hrpN promoter (T3SS); MM + 0.5 μM compound, 12 h): 73.4 ± 4.2
- GFP Intensity of Ech3937 (phrpN) (hrpN promoter (T3SS); MM + 0.5 μM compound, 24 h): 158 ± 20
- GFP Intensity of Ech3937 (phrpN) (hrpN promoter (T3SS); MM + 5 μM compound, 12 h): 134 ± 5.6
- GFP Intensity of Ech3937 (phrpN) (hrpN promoter (T3SS); MM + 5 μM compound, 24 h): 266 ± 14
- GFP Intensity of Ech3937 (phrpN) (hrpN promoter (T3SS); MM + 10 μM compound, 12 h): 147 ± 18
- GFP Intensity of Ech3937 (phrpN) (hrpN promoter (T3SS); MM + 10 μM compound, 24 h): 284 ± 12
- GFP Mean Fluorescence Intensity, hrpN promoter (hrpN promoter (T3SS); [4]): 3.3 ± 0
- rsmB mRNA relative expression ratio (MM alone normalized to 1) (rsmB RNA): 1.58
- GFP Mean Fluorescence Intensity, hrpL promoter (hrpL promoter; Ech3937 (phrpL), 12 h): 19 ± 1
- GFP Mean Fluorescence Intensity, hrpL promoter (hrpL promoter; hrpL mutant WPP96 (phrpL), 12 h): 331 ± 27
- Avg MFI ± SD, hrpA expression (hrpA promoter (T3SS); 6 h): 471.2 ± 12.6
- Avg MFI ± SD, hrpA expression (hrpA promoter (T3SS); 9 h): 432.6 ± 17.8

Compound: O=C(O)/C=C/c1ccc(O)cc1 [Compound 004, para-coumaric acid]
- effect on bacterial growth of Ech3937 in MM, in words [1]: Inhibition of bacterial growth was not observed
- GFP Mean Fluorescence Intensity, vector control ([2]; 12 h, listed as PCA): 2.2 ± 0.2 and 2.3 ± 0.1
- GFP Mean Fluorescence Intensity, vector control ([2]; 24 h): 4.9 ± 0.1
- GFP Mean Fluorescence Intensity, hrpN promoter (hrpN promoter (T3SS); Ech3937 (phrpN), 12 h, listed as PCA): 6.8 ± 0.8 and 4.3 ± 0.1
- GFP Mean Fluorescence Intensity, hrpN promoter (hrpN promoter (T3SS); Ech3937 (phrpN), 24 h, listed as PCA): 8.8 ± 2.1
- GFP Mean Fluorescence Intensity, hrpN promoter (hrpN promoter (T3SS); [4]): 3.0 ± 0.0
- GFP Mean Fluorescence Intensity, hrpN promoter (hrpN promoter (T3SS); hrpL mutant WPP96 (phrpN), 24 h): 4.3 ± 0.1
- GFP Mean Fluorescence Intensity, hrpN promoter (hrpN promoter (T3SS); hrpS mutant WPP90 (phrpN), 12 h): 3.5 ± 0.1
- GFP Mean Fluorescence Intensity, hrpN promoter (hrpN promoter (T3SS); hrpS mutant WPP90 (phrpN), 24 h): 5.1 ± 0.1
- GFP Mean Fluorescence Intensity, hrpN promoter (hrpN promoter (T3SS); hrpX mutant WPP67 (phrpN), 12 h): 3.5 ± 0.2
- GFP Mean Fluorescence Intensity, hrpN promoter (hrpN promoter (T3SS); hrpX mutant WPP67 (phrpN), 24 h): 6.3 ± 0.7
- GFP Mean Fluorescence Intensity, hrpN promoter (hrpN promoter (T3SS); hrpY mutant WPP92 (phrpN), 12 h): 3.6 ± 0.1
- GFP Mean Fluorescence Intensity, hrpN promoter (hrpN promoter (T3SS); hrpY mutant WPP92 (phrpN), 24 h): 5.5 ± 0.3
- rsmB mRNA compared with MM alone, in words (rsmB RNA; 0.1 mM in MM): No significant difference
- GFP Mean Fluorescence Intensity, hrpL promoter (hrpL promoter; Ech3937 (phrpL), 12 h): 7.8 ± 0.1
- Avg MFI ± SD, hrpA expression (hrpA promoter (T3SS); 6 h): 920.6 ± 29.1
- Avg MFI ± SD, hrpA expression (hrpA promoter (T3SS); 9 h): 993.8 ± 43.3

Compound: O=C(O)/C=C/c1ccccc1O [Compound 006, Ortho-coumaric acid]
- GFP Mean Fluorescence Intensity, hrpS promoter (hrpS promoter; Ech3937 (phrpS), 12 h): 56 ± 1
- GFP Mean Fluorescence Intensity, hrpS promoter (hrpS promoter; [3]): 350 ± 17
- effect on bacterial growth of Ech3937 in MM, in words [1]: No reduction of bacterial growth
- GFP Mean Fluorescence Intensity, vector control ([2]; 6 h): 2.0 ± 0
- GFP Mean Fluorescence Intensity, vector control ([2]; 12 h): 2.0 ± 0
- GFP Mean Fluorescence Intensity, vector control ([2]; 24 h): 1.9 ± 0
- hrpN expression in Ech3937 and hrpX, hrpY, hrpS mutants, in words (hrpN promoter (T3SS)): induced the expression of hrpN in Ech3937, but not in hrpX, hrpY, and hrpS mutants
- GFP Mean Fluorescence Intensity, hrpN promoter (hrpN promoter (T3SS); Ech3937 (phrpN), 6 h): 31 ± 3
- GFP Mean Fluorescence Intensity, hrpN promoter (hrpN promoter (T3SS); Ech3937 (phrpN), 12 h, listed as OCA): 94 ± 3 and 91 ± 8
- GFP Mean Fluorescence Intensity, hrpN promoter (hrpN promoter (T3SS); Ech3937 (phrpN), 24 h): 78 ± 8
- GFP Mean Fluorescence Intensity, hrpN promoter (hrpN promoter (T3SS); [4]): 3.3 ± 0.1
- GFP Mean Fluorescence Intensity, hrpN promoter (hrpN promoter (T3SS); iaaM mutant Ech138 (phrpN), 6 h): 9.1 ± 1.6
- GFP Mean Fluorescence Intensity, hrpN promoter (hrpN promoter (T3SS); iaaM mutant Ech138 (phrpN), 12 h): 33 ± 5
- GFP Mean Fluorescence Intensity, hrpN promoter (hrpN promoter (T3SS); iaaM mutant Ech138 (phrpN), 24 h): 39 ± 5
- rsmB mRNA relative expression ratio (MM alone normalized to 1) (rsmB RNA): 1.4
- GFP Mean Fluorescence Intensity, hrpL promoter (hrpL promoter; Ech3937 (phrpL), 12 h): 19 ± 0
- Avg MFI ± SD, hrpA expression (hrpA promoter (T3SS); 6 h): 443 ± 16.9
- Avg MFI ± SD, hrpA expression (hrpA promoter (T3SS); 9 h): 437.8 ± 21.1

Compound: O=C(/C=C/c1ccc(O)cc1)NO [Compound 103, trans-4-Hydroxycinnamohydroxamic acid]
- mean fluorescence intensity of GFP, hrpS promoter (hrpS promoter; 12 h): 27.7 ± 1.5
- mean fluorescence intensity of GFP, hrpS promoter (hrpS promoter; 24 h): 26.4 ± 0.6
- inhibitory effect on T3SS hrpS expression, in words (hrpS promoter; reporter plasmid phrpS): inhibited hrpS
- mean fluorescence intensity of GFP, vector control ([2]; 12 h): 3.0 ± 0.6
- mean fluorescence intensity of GFP, vector control ([2]; 24 h): 4.3 ± 0.6
- mean fluorescence intensity of GFP, hrpN promoter (hrpN promoter (T3SS); 12 h): 5.8 ± 0.7
- mean fluorescence intensity of GFP, hrpN promoter (hrpN promoter (T3SS); 24 h): 5.4 ± 0.3
- mean fluorescence intensity of GFP, hrpL promoter (hrpL promoter; 12 h): 7.6 ± 0.2
- mean fluorescence intensity of GFP, hrpL promoter (hrpL promoter; 24 h): 7.7 ± 0.2
- Avg MFI ± SD, hrpA expression (hrpA promoter (T3SS); 6 h): 206.9 ± 3.9
- Avg MFI ± SD, hrpA expression (hrpA promoter (T3SS); 9 h): 168.2 ± 24.9
